Laboratory results taken from patent publication US20230364091A1, “COMPOSITIONS AND METHODS FOR TREATING CANCER” (The Regents of the University of California, priority 2020, published 2023).

Assays:
[1] = Brain penetration in non-tumor bearing mice; assay type: in vivo; conditions: mouse, brain and plasma, unbound ratio of drug in brain to plasma
Excerpt: Disclosed in table 5 Brain to plasma percentages and unbound ratios of drugs in brain to plasma of indicated drugs in non-tumor bearing mice

[2] = system: HCC827 cells (EGFR exon 19 deletion); assay: Cellular IC50, Cell Titer Glo viability, HCC827; assay type: cell-based; conditions: Homo sapiens, 72 hours
Protocol: (§1) PC-9 cells were purchased from Sigma, and HCC827 cells were purchased from ATCC. Each cell line was maintained at ≤passage 10 at 37° C. in a humidified incubator with 5% CO2. Cells were plated in 96-well optical bottom plates (Corning #3903; Corning, NY) at a cell density of 5,000 cells/well, allowed to adhere for minimally 16 hours, and subsequently treated with the test compounds using an 11-point serial dilution (1:3) in duplicate using an HP D300 digital 4 dispenser (Tecan, Morrisville, NC). 72 hours after addition of the test compounds, Cell Titer Glo reagent (Promega, Madison, WI) was added to the plate according to manufacturer's protocol and luminescence measured using a Spectramax M5 (Molecular Devices, San Jose, CA). IC50s were calculated using the 4-parameter variable slope curve fit using the equation below where, Y and X are variables plotted, Top and Bottom are plateaus in the units of the Y axis, Log IC50 is the Log transformation of the IC50 value and HillSlope is the Hill Slope for the curve and describes curve steepness (GraphPad Prism, version 6.07, GraphPad Software, Inc.). Y=Bottom+(Top−Bottom)/(1+10((Log IC50−X)*HillSlope)))

[3] = system: PC-9 cells (EGFR exon 19 deletion); assay: Cellular IC50, Cell Titer Glo viability, PC-9; assay type: cell-based; conditions: Homo sapiens, 72 hours
Protocol: as §1

In the case of `Fc1c(Br)cccc1Nc1ncnc2cc3c(cc12)OC(CN1CCOCC1)CO3` (racemic) [JGK063, (±)-N-(3-Bromo-2-fluorophenyl)-7-[(morpholin-4-yl)methyl]-7,8-dihydro[1,4]dioxino[2,3-g]quinazolin-4-amine], the Kp uu [1] is reported as 0.341.
Compound `CN1CCN(CC2COc3cc4ncnc(Nc5cccc(Br)c5F)c4cc3O2)CC1` (racemic) [JGK068, (±)-N-(3-Bromo-2-fluorophenyl)-7-[(4-methylpiperazin-1-yl)methyl]-7,8-dihydro[1,4]dioxino[2,3-g]quinazolin-4-amine] has a Kp uu [1] of 1.18.
In the case of `Fc1c(Br)cccc1Nc1ncnc2cc3c(cc12)O[C@@H](CN1CCNCC1)CO3` [JGK083S, (7S)—N-(3-Bromo-2-fluorophenyl)-7-[(piperazin-1-yl)methyl]-7,8-dihydro[1,4]dioxino [2,3-g]quinazolin-4-amine], the Kp uu [1] is reported as 0.798.
For `CN(C)CC1COc2cc3ncnc(Nc4cccc(Br)c4F)c3cc2O1` (racemic) [JGK066, (±)-N-(3-Bromo-2-fluorophenyl)-7-[(dimethylamino)methyl]-7,8-dihydro[1,4]dioxino[2,3-g]quinazolin-4-amine], the Kp uu [1] was 1.18.
With `Fc1c(Br)cccc1Nc1ncnc2cc3c(cc12)O[C@@H](CN1CCCC1)CO3` [JCN067S, (S)—N-(3-bromo-2-fluorophenyl)-7-(pyrrolidin-1-ylmethyl)-7,8-dihydro-[1,4]dioxino[2,3-g]quinazolin-4-amine] the IC50 [2] was 25.7 nM and the IC50 [3] was 36.2 nM.
`Fc1c(Br)cccc1Nc1ncnc2cc3c(cc12)O[C@@H](CN1CCOCC1)CO3` [JCN063S, (S)—N-(3-bromo-2-fluorophenyl)-7-(morpholinomethyl)-7,8-dihydro-[1,4]dioxino[2,3-g]quinazolin-4-amine] gave an IC50 [2] of 12.7 nM and an IC50 [3] of 21.7 nM.
`Fc1c(Br)cccc1Nc1ncnc2cc3c(cc12)O[C@@H](CN1CCCCC1)CO3` [JCN065S, (S)—N-(3-bromo-2-fluorophenyl)-7-(piperidin-1-ylmethyl)-7,8-dihydro-[1,4]dioxino[2,3-g]quinazolin-4-amine] showed an IC50 [2] of 49.5 nM and an IC50 [3] of 53.9 nM.
Compound `CN1CCN(C[C@H]2COc3cc4ncnc(Nc5cccc(Br)c5F)c4cc3O2)CC1` [JGK068S, (7S)—N-(3-Bromo-2-fluorophenyl)-7-[(4-methylpiperazin-1-yl)methyl]-7,8-dihydro[1,4]dioxino [2,3-g]quinazolin-4-amine] has a Kp uu [1] of 1.18.
